Assay [1] in a line: Inhibition of human RFC expressed in Chinese Hamster MTXRII-OuaR2-4 R2 cells assessed as reduction in cell proliferation after 96 hrs by CellTiter-blue assay. (Alamar Blue is a resazurin reagent that responds to reducing activity.)
The nature of assay [2]: Inhibition of human FRalpha expressed in Chinese Hamster MTXRII-OuaR2-4 R2 cells assessed as reduction in cell proliferation after 96 hrs by CellTiter-blue assay.
A short description of assay [3]: Inhibition of human FRbeta expressed in Chinese Hamster MTXRII-OuaR2-4 R2 cells assessed as reduction in cell proliferation after 96 hrs by CellTiter-blue assay.
The nature of assay [4]: Inhibition of human PCFT expressed in Chinese Hamster MTXRII-OuaR2-4 R2 cells assessed as reduction in cell proliferation after 96 hrs by CellTiter-blue assay.

`Nc1nc2sc(CCCCc3cc(C(=O)N[C@@H](CCC(=O)O)C(=O)O)cs3)cc2c(=O)[nH]1`: the IC50 (as a rule, the concentration at which inhibition is half-maximal) is > 1000 nM in assay [1], 0.91 nM in assay [2], 1.2 nM in assay [3] and > 1000 nM in assay [4].

For the compound `Nc1nc2sc(CCCCc3csc(C(=O)N[C@@H](CCC(=O)O)C(=O)O)c3)cc2c(=O)[nH]1`, the IC50 was > 1000 nM in assay [1], 5.6 nM in assay [2], 5.6 nM in assay [3] and 460 nM in assay [4].

Turning to `Nc1nc2sc(CCCCc3ccc(C(=O)N[C@@H](CCC(=O)O)C(=O)O)s3)cc2c(=O)[nH]1`, the IC50 in assay [1] was > 1000 nM; in assay [2], 2.6 nM; in assay [3] it was 1.7 nM; in assay [4], > 1000 nM.

Consider `Nc1nc2sc(CCCCc3ccc(C(=O)N[C@@H](CCC(=O)O)C(=O)O)o3)cc2c(=O)[nH]1`, for which the IC50 in assay [1] is > 1000 nM; in assay [2] it was 11 nM; in assay [3], 2.6 nM; in assay [4], > 1000 nM.

For `Nc1nc2sc(CCCc3ccc(C(=O)N[C@@H](CCC(=O)O)C(=O)O)s3)cc2c(=O)[nH]1`, the IC50 in assay [1] was > 1000 nM; in assay [2] it was 0.34 nM; in assay [3], 1.8 nM; in assay [4] it was > 1000 nM.

Turning to `Nc1nc2sc(CCCc3csc(C(=O)N[C@@H](CCC(=O)O)C(=O)O)c3)cc2c(=O)[nH]1`, the IC50 in assay [1] is > 1000 nM; in assay [2] it was 0.44 nM; in assay [3] it was 0.24 nM; in assay [4] it was 107 nM.

Consider `Nc1nc2sc(CCCc3cc(C(=O)N[C@@H](CCC(=O)O)C(=O)O)cs3)cc2c(=O)[nH]1`, for which the IC50 in assay [1] was > 1000 nM; in assay [2], 1.1 nM; in assay [3], 0.72 nM; in assay [4], 80 nM.

On to `Nc1nc2sc(CCCCc3ccc(C(=O)N[C@@H](CCC(=O)O)C(=O)O)cc3)cc2c(=O)[nH]1` [(S)-2-(4-(4-(2-amino-4-oxo-3,4-dihydrothieno[2,3-d]pyrimidin-6-yl)butyl)benzamido)pentanedioic acid], for which the IC50 was > 1000 nM in assay [1], 9 nM in assay [2] and 20 nM in assay [3].

Source of the values: BindingDB's records for doi:10.1016/j.bmc.2021.116093 (Wayne State University School of Medicine, 2021).
